Test results taken from ChEMBL document CHEMBL5727547, “Sodium channel modulators” (2020).

Assays:
[1] = (§1) Automated patch clamp (Tonic Block): Test Protocol for Determining the Potency of Compounds on Nav1.2 and Nav1.6 Subtypes of Voltage-Gated Sodium Ion Channels Expressed in Mammalian CellsCell culture procedures: Chinese hamster ovary (CHO) cells were stably transfected with the cDNA sequence of either the human SCN2A or SCN8A genes to create hNav1.2 or hNav1.6 cells respectively. The cell lines were cultured in Ham's F-12 medium supplemented with 10% fetal bovine serum and antibiotics in a tissue incubator at 37° C. under a humidified air/CO2 mixture (95/5 v/v). On the day of the experiment, cells were washed twice with Hank's balanced salt solution, treated with trypsin, and resuspended in fresh culture media at a density of 4−6×10^6 cells in 20 ml. Immediately before placing in the IonWorks Quattro instrument, cells were washed in Hank's balanced salt solution to remove culture medium and re-suspended in 3 ml of Hank's balanced salt solution. Automated patch clamp recordings of cells using the IonWorks Quattro Instrument: The assay used a 384 microwell plate, which enabled 20 compounds to be studied at four different concentrations in quadruplicate as well as allowing a vehicle control group and a positive control group using mexiletine at 8 different concentrations. Cells were added to the wells of the Population Patch Clamp planar electrode using a 48-channel pipettor in a volume of 6 μL, per well. After 5 minutes incubation at ambient temperature with compounds or vehicle, membrane currents were recorded using the patch clamp amplifier. The pulse pattern was repeated twice, before and after compound addition and peak current amplitudes were measured at TP11 to measure 10 Hz Frequency-dependent Block. Data analysis: Data acquisition and analyses were carried out using the IonWorks Quattro system operation software which uses an algorithm to correct data for leak currents. Concentration-response curves were fitted by non-linear least squares regression allowing calculation of an IC50 value (μM), being the concentration of the compound producing half-maximal inhibition.
[2] = as §1, with “(Inactivation State” for “(Tonic”, “TP12” for “TP11”, “Inactivation State” for “10 Hz Frequency-dependent”
[3] = Automated patch clamp (Tonic Block): Test Protocol for Determining the Potency of Compounds on Nav1.2 and Nav1.6 Subtypes of Voltage-Gated Sodium Ion Channels Expressed in Mammalian CellsCell culture procedures: Chinese hamster ovary (CHO) cells were stably transfected with the cDNA sequence of either the human SCN2A or SCN8A genes to create hNav1.2 or hNav1.6 cells respectively. The cell lines were cultured in Ham's F-12 medium supplemented with 10% fetal bovine serum and antibiotics in a tissue incubator at 37° C. under a humidified air/CO2 mixture (95/5 v/v). On the day of the experiment, cells were washed twice with Hank's balanced salt solution, treated with trypsin, and resuspended in fresh culture media at a density of 4−6×10^6 cells in 20 ml. Immediately before placing in the IonWorks Quattro instrument, cells were washed in Hank's balanced salt solution to remove culture medium and re-suspended in 3 ml of Hank's balanced salt solution. Automated patch clamp recordings of cells using the IonWorks Quattro Instrument: The assay used a 384 microwell plate, which enabled 20 compounds to be studied at four different concentrations in quadruplicate as well as allowing a vehicle control group and a positive control group using mexiletine at 8 different concentrations. […]

Cc1cccc(C)c1OCCCNCc1ccc(-c2ccccc2)cc1
IC50 [1]: > 1000 µM
IC50 [2]: > 1000 µM

Cc1cccc(C)c1OCCCNC(c1ccccn1)c1ccccn1
IC50 [2]: 0.1 µM

Cc1n[nH]c(C)c1OCCCNCc1cccc(-c2cncnc2)c1
IC50 [1]: > 10 µM
IC50 [2]: > 10 µM

Cc1n[nH]c(C)c1OCCCNC(c1ccccn1)c1ccccn1
IC50 [1]: > 10 µM
IC50 [2]: > 10 µM

Cc1nn(C)c(C)c1OCCCNC(c1ccccn1)c1ccccn1
IC50 [1]: > 10 µM
IC50 [2]: > 10 µM

Cc1cccc(C)c1OCCCNCc1cccc(C#N)c1
IC50 [1]: 2 µM
IC50 [2]: 2 µM

Cc1nn(C)c(C)c1OCCCNCc1cccc(-c2cncnc2)c1
IC50 [1]: > 10 µM
IC50 [2]: > 10 µM

Cc1cccc(C)c1OCCCNCc1cccc(C(F)(F)F)c1
IC50 [1]: > 10 µM
IC50 [2]: > 10 µM
IC50 [3]: > 10 µM

Cc1cccc(C)c1OCCCNCc1cc(C(C)(C)C)cc(C(C)(C)C)c1
IC50 [1]: > 10 µM
IC50 [2]: > 10 µM
